Data on four compounds can be found in patent US12653816B2, “Composition for inhibiting growth of cancer stem cells” (INDUSTRY-ACADEMIC COOPERATION FOUNDATION, YONSEI UNIVERSITY, priority 2020, dated 2026).

Test [1] relates to MKN1 cell line. Kind of test: Cell viability assay (Cell Counting Kit-8), MKN1. The test is classed as cell-based, human. Particulars: for antitumor effect (cell viability): MKN1 stem-like cells, treatment alone, various concentrations, 48 hours, FIG. 1. As for the experimental part: (§1) In order to evaluate the ability to inhibit the growth or metastasis of cancer cells or cancer stem cells in the examples according to the present invention, the present inventors obtained MKN1 and HS746T, which are cell lines having human gastric cancer stem cell characteristics, and SNU601, YCC7 and NCIN87 cells, which are human gastric cancer cell lines, from the American Type Culture Collection (ATCC) and the Korean Cell Line Bank (KCRB). The cell lines were cultured in different culture media and culture conditions according to ATCC's or KCRB's guidelines. The MKN1, SNU601, and NCIN87 cell lines were cultured in RPMI1640 medium containing 10% fetal bovine serum (FBS), 2 mM L-glutamine, 100 U/ml penicillin and 100 μg/ml streptomycin, and the HS746T and YCC7 Cell lines were cultured in DMEM containing 10% FBS, 2 mM L-glutamine, 100 U/ml penicillin and 100 μg/ml streptomycin. All the cell lines were cultured at 37° C. under 5% CO2, and subjected to a mycoplasma contamination test.
(§2) Each of the cell lines cultured in the Preparation Example was dispensed into a well plate at a density of 1×10^4 cells per well, and cultured overnight at 37° C. under 5% CO2. Then, the HS746T and MKN1 cell lines, which are gastric cancer stem-like cells, and the YCC7 and NCIN87 cell lines, which are gastric cancer cells, were treated with various concentrations of each of cisplatin (CDDP), which is an anticancer drug currently frequently used in the treatment of gastric cancer patients, and the compound CCG-232601 which is an MRTF-A inhibitor. 100 μL of each cell culture and 10 μL of reaction buffer (CCK) were mixed together, placed in a 96-well plate, and incubated for 1 hour at room temperature, and then the absorbance at a wavelength of 450 nm was measured using a spectrophotometer (Synergy HTX Multi-Reader, BioTek, Winooski, VT, USA). At the same time, the number of cells in each sample was measured with a cell viability assay kit (Cell Counting Kit-8), and the measured value was converted so that the measured value for the same number of cells in each sample could be compared with the number of cells in the negative control group. The experimental results presented are the mean values of the repeated experiments.
Accordingly, in order to evaluate the effect of co-administration of the compound CCG-232601, the survival and growth inhibitory effects of administration of CCG-232601 and cisplatin (CDDP) alone or in combination to the MKN1 cell line were evaluated using a cell viability assay kit (Cell Counting Kit-8; CCK-8). In order to evaluate the effect of administration in combination compared to that of administration alone, 5 μg/ml of CCG-232601 was firstly administered to the MKN1 cell line, and after 24 hours, 5 μM cisplatin (CDDP) was secondarily administered. After 24 hours therefrom, the results were checked with a cell viability analysis kit (CCK-8 assay).

The test system of test [2] is HS746T cell line. The test can be described thus: Cell viability assay (Cell Counting Kit-8), HS746T. It is filed as cell-based, human. Particulars: for antitumor effect (cell viability): HS746T stem-like cells, various concentrations, FIG. 1; for antitumor effect (cell viability) / antitumor effect (number of living cells): treatment alone, 48 hours; for antitumor effect (number of living cells): cisplatin 5 and 10 μM, compounds 5 and 10 μg/ml, FIGS. 7A and 7B. The method, then:
as §1, §2
The present inventors attempted to further confirm the therapeutic effects of the compounds CCG-222740 and CCG-203971, which are compounds other than the compound CCG-232601 corresponding to the MRTFA/SRF inhibitors, against cancer stem cells. As reviewed in Example 1 above, it has been confirmed that the gastric cancer cell line HS746T is of a stem cell-like gastric cancer type, and thus is resistant to the anticancer drug cisplatin. The HS746T cell line was treated with cisplatin and the compounds CCG-222740 and CCG-203971 corresponding to MRTFA/SRF inhibitors. For cell treatment, cisplatin was used at concentrations of 0 μM, 5 μM and 10 μM, and the compound CCG-222740 or CCG-203971 was used at concentrations of 0 μg/ml, 5 μg/ml and 10 μg/ml. The control group was treated with the same amount of DMSO as the compound used for each experimental group. After 48 hours, the number of living cells was measured using a cell viability assay kit (Cell Counting Kit-8), and the results are shown in FIGS. 7A and 7B.
For orientation: Tetrazolium assays rely on reduction of a dye to a coloured formazan, in cell work by metabolically active cells.

Test [3] has as its system MKN1 cell line. The test can be described thus: Transwell invasion assay, MKN1. Particulars: MKN1, 10 μg/ml, 12 hours, Matrigel transwell, FIG. 3. The test is classed as cell-based, human. As for the experimental part: (§3) Transwell invasion assay was performed with or without CCG-232601 treatment. The invasion ability was measured using a 6.5-mm transwell with an 8.0 μm-pore polycarbonate membrane insert (Corning) after coating with Matrigel (Corning) diluted to 0.67 μg/μl with serum-free medium. Then, cells (2×10^4 cells/well) were suspended in 200 μL of a serum-free medium with vehicle or in 10 μg/ml of CCG-232601, and 1,000 μL of culture medium containing 10% FBS was added to the lower chamber. After 12 hours, the migrated cells were stained with 0.2% crystal violet and observed under an optical microscope. The average number of cells that penetrated the membrane was calculated with ImageJ (NIH) from three randomly selected high-power fields and from two independent experiments, and the results are shown in FIG. 3.

Test [4] relates to bleomycin-induced dermal fibrosis. Particulars: administered orally to mice; cited from earlier work.
For test [5], the system named is MKN1 cell line. The test can be described thus: Oxygen consumption rate and extracellular acidification rate (Seahorse), MKN1. It is filed as cell-based, human. The method, then: (§4) In particular, in order to confirm that the compound CCG-232601 has an excellent inhibitory effect on cancer stem cell growth, the oxygen consumption rates (OCRs) and extracellular acidification rates (ECARs) of the stem-like cell lines HS746T and MKN1 having high resistance to metabolic stress were measured and the results are shown in FIG. 2. More specifically, each of the cell lines was seeded in Seahorse normal culture medium at 70 to 80% confluency, and mitochondrial oxidation and glycolytic activity were measured by measuring oxygen consumption rate (OCR, pmol/min/μg protein) and extracellular acidification rate (ECAR, mpH/min/μg protein) using an XF96 or XFp extracellular flux analyzer (Agilent). Mitochondrial oxidation ability of cells pretreated for 1 hour with or without 10 mM β-HB (Sigma) was evaluated using the Seahorse XF mito stress kit (Agilent). To address changes in oxidation and glycolysis upon treatment with CCG-232601, cells were pretreated overnight with vehicle or the inhibitor, and finally 10 mM β-hydroxybutyrate was added during the first injection.

The subject of a further test is NCIN87 cell line. Kind of test: Cell viability assay (Cell Counting Kit-8), NCIN87. The test is classed as cell-based, human. Particulars: NCIN87 gastric cancer cells, treatment alone, various concentrations, 48 hours, FIG. 1. As for the experimental part:
(§5) In order to evaluate the ability to inhibit the growth or metastasis of cancer cells or cancer stem cells in the examples according to the present invention, the present inventors obtained MKN1 and HS746T, which are cell lines having human gastric cancer stem cell characteristics, and SNU601, YCC7 and NCIN87 cells, which are human gastric cancer cell lines, from the American Type Culture Collection (ATCC) and the Korean Cell Line Bank (KCRB). The cell lines were cultured in different culture media and culture conditions according to ATCC's or KCRB's guidelines. […]
(§6) Each of the cell lines cultured in the Preparation Example was dispensed into a well plate at a density of 1×10^4 cells per well, and cultured overnight at 37° C. under 5% CO2. […] 100 μL of each cell culture and 10 μL of reaction buffer (CCK) were mixed together, placed in a 96-well plate, and incubated for 1 hour at room temperature, and then the absorbance at a wavelength of 450 nm was measured using a spectrophotometer (Synergy HTX Multi-Reader, BioTek, Winooski, VT, USA). At the same time, the number of cells in each sample was measured with a cell viability assay kit (Cell Counting Kit-8), and the measured value was converted so that the measured value for the same number of cells in each sample could be compared with the number of cells in the negative control group. […]

For test [6], the system named is HS746T cell line. The test can be described thus: Transwell invasion assay, HS746T. The test is classed as cell-based, human. Particulars: 10 μg/ml, 12 hours, Matrigel transwell, FIG. 3. The method, then: as §3
In the next test the test system is YCC7 cell line. Kind of test: Cell viability assay (Cell Counting Kit-8), YCC7. The test is classed as cell-based, human. Particulars: YCC7 gastric cancer cells, treatment alone, various concentrations, 48 hours, FIG. 1. As for the experimental part: as §5, §6
The test system of test [7] is HS746T cell line. The test can be described thus: Oxygen consumption rate and extracellular acidification rate (Seahorse), HS746T. It is filed as cell-based, human. As for the experimental part: as §4
Test [8] deals with lung fibrosis lung fibroblasts. Particulars: cited from earlier work.
For test [9], the system named is murine model of skin injury. Particulars: cited from earlier work.
The subject of test [10] is human colonic myofibroblasts. Particulars: cited from earlier work.
In test [11] the test system is alpha smooth muscle actin protein. Particulars: cited from earlier work.
Test [12] relates to preclinical model of fibrosis. Particulars: cited from earlier work.

Consider `N.N.[Cl][Pt][Cl]` [cisplatin], for which the “drug sensitivity upon cisplatin (CDDP) treatment” value with MKN1 cell line [1] (MKN1, FIG. 4) is “exhibited resistance to cisplatin”; in the test on HS746T cell line [2] (HS746T, FIG. 4), “exhibited resistance to cisplatin”. The “antitumor effect (cell viability)” value with MKN1 cell line [1] and in the test on HS746T cell line [2] was “did not exhibit antitumor effects” in each case. Also, the “drug sensitivity lower than that of the cancer cell lines” value with MKN1 cell line [1] (MKN1 versus SNU601 and NCIN87, cisplatin, FIG. 4) is given as 20 to 40%; with HS746T cell line [2] (HS746T versus SNU601 and NCIN87, cisplatin, FIG. 4), 20 to 40%. The “antitumor effect (number of living cells)” value in the test with HS746T cell line [2] (HS746T) is “did not exhibit an antitumor effect”.

Regarding `O=C(Nc1ccc(Cl)cc1)C1CN(C(=O)c2cccc(-c3ccncc3)c2)CC(F)(F)C1` (centres unmarked) [CCG-232601, N-(4-chlorophenyl)-5,5-difluoro-1-(3-(pyridin-4-yl)benzoyl)piperidine-3-carboxamide], the “invasion and metastasis (cells that penetrated the membrane)” value with MKN1 cell line [3] is “reduced the invasion and metastasis”; in the test on HS746T cell line [6], “reduced the invasion and metastasis”. Moreover, the “development of bleomycin-induced dermal fibrosis” value in [4] is given as “suppress the development of bleomycin-induced dermal fibrosis”. In addition, the “extracellular acidification rate (ECAR) versus oxygen consumption rate (OCR)” value is listed as “the glycolysis ECAR was higher than OCR” in the test with MKN1 cell line [5] (MKN1, pretreated overnight, 10 mM β-hydroxybutyrate at first injection, FIG. 2) and “the glycolysis ECAR was higher than OCR” in the test with HS746T cell line [7] (HS746T, pretreated overnight, 10 mM β-hydroxybutyrate at first injection, FIG. 2). Moreover, the “sensitivity to glucose deprivation” value with MKN1 cell line [5] (gastric cancer stem cells (MKN1)) and in the test on HS746T cell line [7] (gastric cancer stem cells (HS746T)) was “greatly increased the sensitivity to glucose deprivation” each time. Moreover, the “antitumor effect (cell viability)” value in the test with NCIN87 cell line was “exhibited antitumor effects”; with YCC7 cell line it was “exhibited antitumor effects”; with MKN1 cell line [1] it was “significantly improved antitumor effects”; in the test on HS746T cell line [2], “significantly improved antitumor effects”. Besides, the “cell viability lower than in the negative control group and the cisplatin-only group” value with MKN1 cell line [1] (MKN1, 5 μg/ml administered alone, CCK-8, FIG. 6) was 20%.

In the case of `O=C(Nc1ccc(Cl)cc1)C1CCCN(C(=O)c2cccc(-c3ccco3)c2)C1` (centres unmarked) [CCG-203971, N-(4-chlorophenyl)-1-(3-(furan-2-yl)benzoyl)piperidine-3-carboxamide], the anti-fibrotic activity result in [8] and in test [9] was “exhibits anti-fibrotic activity” each time. Also, in test [10], the “matrix stiffness and TGF-β-mediated fibrogenesis” value was “inhibits both matrix stiffness and TGF-β-mediated fibrogenesis”. In the test on HS746T cell line [2] (HS746T), the “antitumor effect (number of living cells)” value is recorded as “significantly improved antitumor effect”.

On to `O=C(Nc1ccc(Cl)cc1)C1CN(C(=O)c2cccc(-c3ccco3)c2)CC(F)(F)C1` (centres unmarked) [CCG-222740, N-(4-Chlorophenyl)-5,5-difluoro-1-(3-(furan-2-yl)benzoyl)piperidine-3-carboxamide], for which, in test [11], the “expression of alpha smooth muscle actin protein” value is listed as “prevent the expression of alpha smooth muscle actin protein”. Further, the scar tissue formation result in test [12] was “effectively prevent scar tissue formation”. The “antitumor effect (number of living cells)” value with HS746T cell line [2] (HS746T) is “significantly improved antitumor effect”.
